Results reported in EP4810052A2, “HCRHR2 SELECTIVE POLYPEPTIDES” (Gubra A/S, priority 2023, dated 2026).
Where two headings read alike, the source gives them in different places. Starred links: 1 amine or outer side, 2 acyl side, 3 side chain; linkers in the order of their positions; H or OH if unused. Non-standard residues stand in square brackets, D forms with d. Residues, ends and D or L forms follow the SMILES beside them. Groups on a side chain read outwards from the residue. *: point of attachment. C20 diacid = O=C(O)CCCCCCCCCCCCCCCCCCC(=O)*; Pro(cis-4-F) = O=C(O)[C@@H]1C[C@H](F)CN1; γGlu = O=C(O)[C@H](CCC(=O)[*:2])N[*:1]; NMeI = CC[C@H](C)[C@H](NC)C(=O)O; Nle = CCCC[C@H](N)C(=O)O; AEEA = NCCOCCOCC(=O)O; Aib = CC(C)(N)C(=O)O

Columns and labels:
[1] = biological target: T1, hCRHR2 (Homo sapiens, UniProt Q13324); experiment: HTRF cAMP assay, determination of hCRHR2 potency (peptide libraries 5 conc., purified peptides 11 conc.); type: cell-based
T1 sequence (Q13324 1-411): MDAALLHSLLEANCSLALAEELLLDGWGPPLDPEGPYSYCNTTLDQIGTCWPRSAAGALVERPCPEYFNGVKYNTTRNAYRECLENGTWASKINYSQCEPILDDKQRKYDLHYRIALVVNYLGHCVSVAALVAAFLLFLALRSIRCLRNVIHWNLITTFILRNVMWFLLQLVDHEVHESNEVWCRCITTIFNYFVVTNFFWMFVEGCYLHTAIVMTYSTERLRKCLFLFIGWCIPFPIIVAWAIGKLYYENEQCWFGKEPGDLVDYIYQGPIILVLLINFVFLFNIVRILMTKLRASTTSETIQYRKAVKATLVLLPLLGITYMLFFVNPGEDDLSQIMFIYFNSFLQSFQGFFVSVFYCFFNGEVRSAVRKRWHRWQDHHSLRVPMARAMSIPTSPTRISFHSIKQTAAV
How it was run: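 Read-out was HTRF competitive cAMP detection (d2-labelled cAMP, cryptate-labelled antibody) in suspended, freshly thawed CHO-K1 cells stably carrying human CRHR2.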

[2] = biological target: T2, hCRHR1 (Homo sapiens, UniProt P34998); experiment: HTRF cAMP assay, determination of hCRHR1 potency (peptide libraries 5 conc., purified peptides 11 conc.); type: cell-based
T2 sequence (P34998 24-415): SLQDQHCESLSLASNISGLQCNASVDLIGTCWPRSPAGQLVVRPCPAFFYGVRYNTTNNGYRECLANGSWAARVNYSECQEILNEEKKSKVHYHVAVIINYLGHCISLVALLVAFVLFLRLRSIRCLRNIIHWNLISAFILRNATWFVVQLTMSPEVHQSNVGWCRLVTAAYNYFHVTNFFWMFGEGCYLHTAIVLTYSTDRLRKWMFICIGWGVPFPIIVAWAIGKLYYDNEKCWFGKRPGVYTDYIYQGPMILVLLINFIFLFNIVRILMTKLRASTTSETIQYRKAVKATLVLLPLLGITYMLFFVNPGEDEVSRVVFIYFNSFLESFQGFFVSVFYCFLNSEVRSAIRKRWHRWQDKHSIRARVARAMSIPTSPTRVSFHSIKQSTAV
How it was run: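 Cellular cAMP was read by time-resolved FRET between d2-labelled cAMP and cryptate anti-cAMP antibody. The cells were freshly thawed suspension CHO-K1 cells stably expressing human CRHR1.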

[3] = library peptides, matched molecular pairs L vs Nle in position X^38, read-out: Potency hCRHR2 pEC50 (converted)
[4] = library peptides, matched molecular pairs L vs Nle in position X^38, read-out: Potency hCRHR1 pEC50 (converted)

CCCC[C@H](NC(=O)[C@@H](NC(=O)[C@H](CCC(=O)O)NC(=O)[C@H](C)NC(=O)[C@H](CC(N)=O)NC(=O)[C@@H](NC(=O)[C@H](CCCCNC(=O)COCCOCCNC(=O)COCCOCCNC(=O)CC[C@H](NC(=O)CC[C@H](NC(=O)CCCCCCCCCCCCCCCCCCC(=O)O)C(=O)O)C(=O)O)NC(=O)[C@H](C)NC(=O)[C@H](CCC(N)=O)NC(=O)[C@H](CCC(N)=O)NC(=O)[C@H](CCCNC(=N)N)NC(=O)[C@H](C)NC(=O)[C@H](C)NC(=O)[C@H](CCC(N)=O)NC(=O)[C@H](C)NC(=O)[C@H](CCCNC(=N)N)NC(=O)[C@H](C)NC(=O)[C@H](CCC(N)=O)NC(=O)[C@H](CCC(=O)O)NC(=O)[C@H](CC(C)C)NC(=O)[C@H](CC(C)C)NC(=O)[C@@H](NC(=O)[C@H](CCC(N)=O)NC(=O)[C@H](CC(C)C)NC(=O)[C@H](CC(C)C)NC(=O)CNC(=O)[C@@H](NC(=O)[C@@H]1CCCN1C(=O)[C@@H](NC(=O)[C@H](CC(=O)O)NC(=O)[C@H](CC(C)C)NC(=O)[C@H](CO)NC(=O)[C@H](CC(C)C)NC(=O)[C@@H](NC(=O)[C@@H](N)[C@@H](C)CC)C(C)C)C(C)C)[C@@H](C)CC)[C@@H](C)CC)[C@@H](C)O)[C@@H](C)CC)C(=O)N[C@@H](C)C(=O)N[C@@H](CCC(=O)O)C(=O)N[C@H](C(N)=O)C(C)C [compound 55] (H-IVLSLDVPIGLLQILLEQARAQAARQQAK([AEEA-AEEA-γGlu-γGlu-C20 diacid])TNAEI[Nle]AEV-NH2)
EC50 [1, 3]: 0.126 nM | EC50 [2, 4]: 251 nM

CC[C@H](C)[C@H](N)C(=O)N[C@H](C(=O)N[C@@H](CC(C)C)C(=O)N[C@@H](CO)C(=O)N[C@@H](CC(C)C)C(=O)N[C@@H](CC(=O)O)C(=O)N[C@H](C(=O)N1CCC[C@H]1C(=O)N[C@H](C(=O)NCC(=O)N[C@@H](CC(C)C)C(=O)N[C@@H](CC(C)C)C(=O)N[C@@H](CCC(N)=O)C(=O)N[C@H](C(=O)N[C@@H](CC(C)C)C(=O)N[C@@H](CC(C)C)C(=O)N[C@@H](CO)C(=O)N[C@@H](CCC(N)=O)C(=O)N[C@@H](C)C(=O)N[C@@H](CCCNC(=N)N)C(=O)N[C@@H](C)C(=O)N[C@@H](CCCNC(=N)N)C(=O)N[C@@H](C)C(=O)N[C@@H](C)C(=O)N[C@@H](CCCNC(=N)N)C(=O)N[C@@H](CCC(=O)O)C(=O)N[C@@H](CCC(N)=O)C(=O)N[C@@H](C)C(=O)N[C@@H](CCCCNC(=O)COCCOCCNC(=O)COCCOCCNC(=O)CC[C@H](NC(=O)CC[C@H](NC(=O)CCCCCCCCCCCCCCCCCCC(=O)O)C(=O)O)C(=O)O)C(=O)N[C@H](C(=O)N[C@@H](CC(N)=O)C(=O)N[C@@H](C)C(=O)N[C@@H](CCC(=O)O)C(=O)N[C@H](C(=O)N[C@@H](CC(C)C)C(=O)N[C@@H](C)C(=O)N[C@@H](CCC(=O)O)C(=O)N[C@H](C(N)=O)C(C)C)[C@@H](C)CC)[C@@H](C)O)[C@@H](C)CC)[C@@H](C)CC)C(C)C)C(C)C [compound 82] (H-IVLSLDVPIGLLQILLSQARARAAREQAK([AEEA-AEEA-γGlu-γGlu-C20 diacid])TNAEILAEV-NH2)
EC50 [1, 3]: 0.631 nM | EC50 [2, 4]: 158000 nM

CCCC[C@H](NC(=O)[C@@H](NC(=O)[C@H](CCC(=O)O)NC(=O)C(C)(C)NC(=O)[C@H](CC(N)=O)NC(=O)[C@@H](NC(=O)[C@H](CCCCNC(=O)COCCOCCNC(=O)COCCOCCNC(=O)CC[C@H](NC(=O)CC[C@H](NC(=O)CCCCCCCCCCCCCCCCCCC(=O)O)C(=O)O)C(=O)O)NC(=O)[C@H](C)NC(=O)[C@H](CCC(N)=O)NC(=O)[C@H](CCC(=O)O)NC(=O)[C@H](CCCNC(=N)N)NC(=O)[C@H](C)NC(=O)[C@H](C)NC(=O)[C@H](CCCNC(=N)N)NC(=O)[C@H](C)NC(=O)[C@H](CCCNC(=N)N)NC(=O)[C@H](C)NC(=O)[C@H](CCC(N)=O)NC(=O)[C@@H](NC(=O)[C@H](CC(C)C)NC(=O)[C@H](CC(C)C)NC(=O)[C@@H](NC(=O)[C@H](CCC(N)=O)NC(=O)[C@H](CC(C)C)NC(=O)[C@H](CC(C)C)NC(=O)CNC(=O)[C@@H](NC(=O)[C@@H]1CCCN1C(=O)[C@@H](NC(=O)[C@H](CC(=O)O)NC(=O)[C@H](CC(C)C)NC(=O)[C@H](CO)NC(=O)[C@H](CC(C)C)NC(=O)[C@@H](NC(=O)[C@@H](NC)[C@@H](C)CC)C(C)C)C(C)C)[C@@H](C)CC)[C@@H](C)CC)[C@@H](C)O)[C@@H](C)O)[C@@H](C)CC)C(=O)N[C@@H](C)C(=O)N[C@@H](CCC(=O)O)C(=O)N[C@H](C(N)=O)C(C)C [compound 217] (H-[NMeI]VLSLDVPIGLLQILLTQARARAAREQAK([AEEA-AEEA-γGlu-γGlu-C20 diacid])TN[Aib]EI[Nle]AEV-NH2)
EC50 ([1]; Table 4, library peptides having X^38 = Nle, read-out: hCRHR2 pEC50 (converted)): 0.0398 nM | EC50 ([2]; Table 4, library peptides having X^38 = Nle, read-out: hCRHR1 pEC50 (converted)): 1000 nM

CC[C@H](C)[C@H](N)C(=O)N[C@H](C(=O)N[C@@H](CC(C)C)C(=O)N[C@@H](CO)C(=O)N[C@@H](CC(C)C)C(=O)N[C@@H](CC(=O)O)C(=O)N[C@H](C(=O)N1C[C@@H](F)C[C@H]1C(=O)N[C@H](C(=O)NCC(=O)N[C@@H](CC(C)C)C(=O)N[C@@H](CC(C)C)C(=O)N[C@@H](CCC(N)=O)C(=O)N[C@H](C(=O)N[C@@H](CC(C)C)C(=O)N[C@@H](CC(C)C)C(=O)N[C@H](C(=O)N[C@@H](CCC(N)=O)C(=O)N[C@@H](C)C(=O)N[C@@H](CCCNC(=N)N)C(=O)N[C@@H](C)C(=O)N[C@@H](CCCNC(=N)N)C(=O)N[C@@H](C)C(=O)N[C@@H](C)C(=O)N[C@@H](CCCNC(=N)N)C(=O)N[C@@H](CCC(=O)O)C(=O)N[C@@H](CCC(N)=O)C(=O)N[C@@H](C)C(=O)N[C@@H](CCCCNC(=O)COCCOCCNC(=O)COCCOCCNC(=O)CC[C@H](NC(=O)CC[C@H](NC(=O)CCCCCCCCCCCCCCCCCCC(=O)O)C(=O)O)C(=O)O)C(=O)N[C@H](C(=O)N[C@@H](CC(N)=O)C(=O)N[C@@H](C)C(=O)N[C@@H](CCC(=O)O)C(=O)N[C@H](C(=O)N[C@@H](CC(C)C)C(=O)N[C@@H](C)C(=O)N[C@@H](CCC(=O)O)C(=O)N[C@H](C(N)=O)C(C)C)[C@@H](C)CC)[C@@H](C)O)[C@@H](C)O)[C@@H](C)CC)[C@@H](C)CC)C(C)C)C(C)C [compound 80] (H-IVLSLDV[Pro(cis-4-F)]IGLLQILLTQARARAAREQAK([AEEA-AEEA-γGlu-γGlu-C20 diacid])TNAEILAEV-NH2)
EC50 [1, 3]: 1 nM | EC50 [2, 4]: 25100 nM

CC[C@H](C)[C@H](N)C(=O)N[C@H](C(=O)N[C@@H](CC(C)C)C(=O)N[C@@H](CO)C(=O)N[C@@H](CC(C)C)C(=O)N[C@@H](CC(=O)O)C(=O)N[C@H](C(=O)N1CCC[C@H]1C(=O)N[C@H](C(=O)NCC(=O)N[C@@H](CC(C)C)C(=O)N[C@@H](CC(C)C)C(=O)N[C@@H](CCC(N)=O)C(=O)N[C@H](C(=O)N[C@@H](CC(C)C)C(=O)N[C@@H](CC(C)C)C(=O)N[C@@H](CCC(=O)O)C(=O)N[C@@H](CCC(N)=O)C(=O)N[C@@H](C)C(=O)N[C@@H](CCCNC(=N)N)C(=O)N[C@@H](C)C(=O)N[C@@H](CCC(=O)O)C(=O)N[C@@H](C)C(=O)N[C@@H](C)C(=O)N[C@@H](CCCNC(=N)N)C(=O)N[C@@H](CCC(=O)O)C(=O)N[C@@H](CCC(N)=O)C(=O)N[C@@H](C)C(=O)N[C@@H](CCCCNC(=O)COCCOCCNC(=O)COCCOCCNC(=O)CC[C@H](NC(=O)CC[C@H](NC(=O)CCCCCCCCCCCCCCCCCCC(=O)O)C(=O)O)C(=O)O)C(=O)N[C@H](C(=O)N[C@@H](CC(N)=O)C(=O)N[C@@H](C)C(=O)N[C@@H](CCC(=O)O)C(=O)N[C@H](C(=O)N[C@@H](CC(C)C)C(=O)N[C@@H](C)C(=O)N[C@@H](CCC(=O)O)C(=O)N[C@H](C(N)=O)[C@@H](C)CC)[C@@H](C)CC)[C@@H](C)O)[C@@H](C)CC)[C@@H](C)CC)C(C)C)C(C)C [SEQ ID NO: 23] (H-IVLSLDVPIGLLQILLEQARAEAAREQAK([AEEA-AEEA-γGlu-γGlu-C20 diacid])TNAEILAEI-NH2)
EC50 ([1]; Table 3, matched molecular pairs X^38 L vs Nle, peptide library of Example 4, read-out: hCRHR2 pEC50 (converted)): 0.501 nM | EC50 ([2]; Table 3, matched molecular pairs X^38 L vs Nle, peptide library of Example 4, read-out: hCRHR1 pEC50 (converted)): 39800 nM
